{"source": "patent US20040014209A1", "about": "“Compositions and methods for modulating cell differentiation” (priority 2002, published 2004)", "key": {"[1]": {"biological_target": "T1, Wnt8 (Xenopus laevis, UniProt P28026)", "T1 construct": "expressed in transfected cells; host or cells: Xenopus laevis embryos (mRNA injection at the two-cell stage), animal caps isolated at stage 9", "T1 sequence (P28026 23-358)": "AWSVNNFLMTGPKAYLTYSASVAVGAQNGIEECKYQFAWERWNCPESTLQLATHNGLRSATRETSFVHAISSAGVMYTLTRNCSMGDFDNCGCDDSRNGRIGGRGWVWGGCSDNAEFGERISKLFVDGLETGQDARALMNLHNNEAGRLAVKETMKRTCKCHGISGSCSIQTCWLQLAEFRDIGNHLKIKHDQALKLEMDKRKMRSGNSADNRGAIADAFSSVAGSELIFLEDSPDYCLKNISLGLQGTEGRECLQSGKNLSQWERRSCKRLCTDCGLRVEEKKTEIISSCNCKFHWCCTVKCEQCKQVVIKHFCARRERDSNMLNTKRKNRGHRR", "experiment": "Block of Wnt8 induction of Siamois in animal caps", "type": "cell-based", "settings": "RT-PCR at stage 10.5", "method": "FIG. 6. dkk-1 and crescent, but not frzb, induce cardiac specific gene expression in noncardiogenic tissue. (A) mRNAs encoding various Wnt and BMP antagonists were injected equatorially into ventral blastomeres at the four-cell stage. Ventral marginal zone (VMZ) tissue was then explanted from Xenopus laevis at stage 10 and cultured until analyzed by RT-PCR for gene expression at stage 30 (see Materials and Methods). (B) Injection of dkk-1 or crescent induced both markers of cardiac mesoderm (Tbx5 and Nkx2.5) and heart muscle-specific genes (cardiac isoform of troponin-I, Tnlc, and myosin heavy chain-α, MHCα) in VMZ tissue. frzb, in contrast, induced muscle actin (m. actin), which is primarily a skeletal muscle marker, but not cardiac specific gene expression. […] Wnt8 and Wnt antagonist mRNAs were injected into the animal region of two-cell-stage embryos and caps were isolated at stage 9, cultured, and processed for RT-PCR at stage 10.5 (F). […] EF1α expression is shown as a control for the RT reaction in all cases.\nThe reason for the difference in doses of dkk-1 and crescent mRNA required to induce muscle actin and the cardiac-specific markers was explored further by evaluating their relative ability to block Siamois induction by Wnt8 (FIG. 6F, G). […]"}, "[2]": {"system": "posterior primitive streak (PPS) explants", "experiment": "Cardiac induction in posterior primitive streak (PPS) explants", "type": "cell-based, chick", "settings": "PPS cocultured with transfected COS cells; RT-PCR", "from_the_text": "(§1) As crescent is expressed in anterior endoderm at approximately the stage expected for a heart-inducing factor, we investigated whether this Wnt inhibitor could induce the formation of heart muscle in explanted gastrula-stage posterior tissues. We made a replication-competent RCAS-crescent retrovirus and examined whether viral crescent expression can substitute for anterior endoderm in the cardiac induction assay. Explants of either PLP-mesoderm or PPS were infected with RCAS viruses encoding either crescent (RCAS-crescent) or alkaline phosphatase (RCAS-AP).\n(§2) Eggs were incubated to the given stage (Hamburger and Hamilton 1951), and tissues were dissected with tungsten needles in Tyrodes solution using 1% agar dishes as a base. Serum-free medium containing insulin, transferrin, and selenium was adapted from Stern and Hauschka (1995) and supplemented with 2% chick embryo extract (Life Technologies). Virally infected explants were incubated on ice with viral supernatant diluted 1:1 with culture medium for 1-2 h, then cultured overnight in a sandwich of 35% collagen pads and overlaid with the above concentration of viral supernatant and medium containing 8 μg/mL polybrene. The following day, 0.25 mL of culture medium was added to each well. Anterior endoderm and COS cell cocultures were carried out on 2-μ pore size Nucleopore filters floating on culture medium. […]"}, "[3]": {"system": "posterior lateral plate (PLP) mesoderm explants", "experiment": "Cardiac induction in posterior lateral plate (PLP) mesoderm explants", "type": "cell-based, chick", "settings": "PLP mesoderm cocultured with transfected COS cells; RT-PCR", "from_the_text": "as §1, §2"}}, "data": [{"substance": "dkk-1", "values": [{"measurement": "Wnt8 induction of Siamois", "setting": "[1]", "result": "block Wnt8 induction of Siamois"}, {"measurement": "Cardiac gene expression (Nkx-2.5, CMHC1)", "setting": "[2]", "result": "failed to activate cardiac gene expression"}, {"measurement": "Cardiac gene expression (Nkx-2.5, CMHC1)", "setting": "[3]", "result": "induced both Nkx2.5 and CMHC1"}]}]}
